The text below walks through data of patent US20250332096A1, “BEVERAGE FORMULATION AND METHOD OF PROMOTING CELLULAR HYDRATION BY ENHANCING INTRACELLULAR PERMEATION” (Eastpond Laboratories Limited, priority 2024, published 2025).

In one series the test system is C. elegans. Put plainly: C. elegans longevity in hydration modified water (Example 5). The following applies: for Animals alive, % of initial: 0.1% w/w in nutritive media, USA I water. In kind it is in vivo. As to the method: C. elegans nematodes were grown in petri-type dishes containing normal nutrient liquid media prepared alternatively with USA I water (described in Example 2) lacking any further additive component (control) or the same water supplemented with a parent α-, β-, or γ-cyclodextrin, and/or a bioactive agent, as an active component of cellular hydration. Fifty ±3 worms were transferred to each dish. Each condition was repeated in triplicate. Experiments were repeated for USA II and BP I waters described in Example 2.
• A. Addition of parent α-, β- and γ-cyclodextrins. • B. Addition of L-arginine and nicotinamide. • C. Addition of inclusion complexes of cyclodextrins with L-arginine and nicotinamide.

The nature of series [1]: Turbidity of test solutions. The format is physicochemical. The following applies: purified water (reference), 0.05%. Here is the method:
(§1) 1:1 mol/mol stoichiometry complexes were prepared for the experiment. Nicotinic acid/alpha-CD complex was prepared by dissolving 11.22 g nicotinic acid and 98.63 g alpha-CD (89.66 g on dry basis) in 700 ml purified water. Nicotinamide/alpha-CD complex was prepared by dissolving 5.57 g nicotinamide and 49.3 g alpha-CD (44.4 g on dry basis) in 350 ml purified water and L-arginine/alpha-CD complex was prepared by dissolving 15.18 g L-arginine and 94.26 g alpha-CD (85.69 g on dry basis) in 700 ml purified water. Further, for all the three complexes, the liquid was frozen in dry ice bath and lyophilized. The dry lyophilizate was ground and sieved.
(§2) Clarity, pH, conductivity, density, viscosity, turbidity, surface tension and osmolality were determined in solutions prepared with purified water. […]

The nature of a further series: pH of test solutions. In kind it is physicochemical. The following applies: purified water. Here is the method: as §1, §2
Series [2] can be described thus: Conductivity of test solutions. The following applies: purified water. In kind it is physicochemical. As to the method:
as §1, §2

The next series deals with T1, human aquaporin 1 (AQP1) (Homo sapiens, UniProt P29972).
T1 construct: host or cells: Xenopus laevis oocytes (mRNA injection)
T1 sequence (P29972 1-269): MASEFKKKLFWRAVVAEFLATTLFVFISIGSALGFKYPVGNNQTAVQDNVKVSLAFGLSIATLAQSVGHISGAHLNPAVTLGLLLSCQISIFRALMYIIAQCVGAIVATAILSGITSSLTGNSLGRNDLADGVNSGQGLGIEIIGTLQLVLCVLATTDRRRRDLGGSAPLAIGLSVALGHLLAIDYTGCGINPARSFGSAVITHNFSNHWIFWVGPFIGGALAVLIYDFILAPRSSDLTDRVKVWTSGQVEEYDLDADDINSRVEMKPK
Put plainly: Xenopus oocyte swelling assay, osmotic water permeability. The format is cell-based. The following applies: 0.05% in water. As to the method: They were then kept on ice for another 15 min before ovarectomy was performed. Ovaries were incubated in collagenase (Worthington Type II, 10 mg/ml) in calcium free Barth's solution (CFBS, NaCl 88 mM, KCl 1 mM, MgSO4 0.8 mM, TRIS-HCl 5 mM, NaHCO3 2.4 mM). Following defolliculation, oocytes were rinsed in normal Barth's solution (MBS, NaCl 88 mM, KCl 1 mM, CaCl2 0.4 mM, Ca(NO3)2 0.33 mM, MgSO4 0.8 mM, TRIS-HCl 5 mM, NaHCO3 2.4 mM) before they were transferred to 96-well plates. For nuclear injection of the different DNA's into the oocytes and for cytoplasmic injection of the mRNA encoding human Aquaporin-1 channels into the oocytes, the Roboocyte automated injection and recording system was used. (Human Aquaporine 1 cDNA cloned in expressing vector pGEM-T were purchased from Sino Biological Inc. Transcription to AQP1 mRNA was performed by an Ecocyte cooperation partner lab.) The mRNA injection volume was in the range 20-50 nl at a mRNA concentration of 100 ng/μl. After two to three days of incubation in Barth's solution supplemented with Gentamycin, water uptake of the Xenopus Oocytes through AQP1 channels was tested in a swelling assay using video microscopy. […] Normal frog ringer (NFR, NaCl 90 mM, KCl 2 mM, CaCl2 2 mM, MgCl2 1 mM, HEPES 5 mM, osmolarity 200 mOsm/1) was used as control solution and was prepared freshly on the day of the experiments. […]

A short description of series [3]: Density measurements of test solutions. In kind it is physicochemical. Conditions: Tap water. Here is the method:
The current study further manifests the density measurements in a cyclodextrin concentration dependent manner.
Water samples used were bottled water and tap water; wherein the tap water comprises the following impurities and properties: Free active chlorine (0.18 mg/1), Chloride (24 mg/1), Iron (6 μg/1), Manganese (2 μg/1), Nitrate (9 mg/1), Nitrite (<0.03 mg/1), Ammonium (<0.04 mg/1), Hardness of water (122 mg/l CaO), Conductivity (442 μS/cm) and pH 8. Purified water was produced by removal of dissolved ions by Merck/Millipore Synergy® Water Purification System at Cyclolab. The water quality produced Type 1 water (18.2 MΩ·cm at 25° C. ultrapure water) from pretreated water.
as §1, §2
However, it may not be established exactly which ionic species (Mg2+, Ca2+, Na+) causes this perturbation.

In the case of `OC[C@H]1O[C@@H]2O[C@H]3[C@H](O)[C@@H](O)[C@@H](O[C@H]4[C@H](O)[C@@H](O)[C@@H](O[C@H]5[C@H](O)[C@@H](O)[C@@H](O[C@H]6[C@H](O)[C@@H](O)[C@@H](O[C@H]7[C@H](O)[C@@H](O)[C@@H](O[C@H]1[C@H](O)[C@H]2O)O[C@@H]7CO)O[C@@H]6CO)O[C@@H]5CO)O[C@@H]4CO)O[C@@H]3CO` [Alpha Cyclodextrin, α-cyclodextrin], the “number of animals surviving to old ages” value with C. elegans (after day 15, 0.1% w/w) is given as “significantly increased”. The “Animals alive, % of initial” value is 100 % of initial with C. elegans (life span 10 days), 20 % of initial in the series with C. elegans (life span 15 days) and 2 % of initial with C. elegans (life span 18 days). Moreover, the “Turbidity (Abs, λ = 410 nm)” value in series [1] is reported as 0.003 Abs. The pH in the series “pH of test solutions” (0.05%) turned out to be 6.20; in “pH of test solutions” (0.10%) it was 6.36; in the series “pH of test solutions” (1.00%) it was 6.55; in “pH of test solutions” (2.00%), 6.70. Also, the Conductivity in series [2] (0.05%) was 35.3 μS · cm^−1; in series [2] (0.10%), 39.0 μS · cm^−1. Moreover, on human aquaporin 1 (AQP1), the “water permeation of human-aquaporin-expressed oocytes” value is recorded as “highest water permeation”. The Density (at 22 C.) in series [3] (0.05%) was determined as 0.9992 ± 0.007 g/cm³; in series [3] (0.10%), 0.9994 ± 0.004 g/cm³; in series [3] (1.00%), 1.002 ± 0.007 g/cm³; in series [3] (2.00%), 1.009 ± 0.005 g/cm³.
